How the values were obtained:
Type in all cases: physicochemical
[1] = Stability of crystalline Form A compared with amorphous Compound 1; conditions: crystalline Form A vs amorphous; traditional purification process
Hygroscopicity of Form A = experiment: Hygroscopicity of Form A
[2] = UV-Vis pH-dependent colour change (bathochromic shift) of MSK-777; conditions: colour change red to blue, basic conditions; read-out: approximate averaged pKa values of the acidic phenol protons (inflection point of colour change)
Source text: These absorptions indicate a benzoisochromanequinones (BIQ) chromophore. The broad adsorption in the visible region (around 527 nm) is responsible for the intense red color of the substance.
Under basic conditions (pH>8) a bathochromic shift of Vis-absorption (ca. 40 nm) is observed, indicating ionization of slightly acidic phenolic protons. This pH dependent indicatory behavior is characteristic to the BIQ chromophore and is visually observed as the solution turns from red to blue.

[3] = Chemical degradation under acidic conditions observed by HPLC; conditions: acidic conditions (pH<4), ambient temperature
Source text: The degradation is caused by hydrolysis of the glycosidic bond, forming Granaticin A, the biosynthetic precursor of MSK-777. Consistently, in a time dependent HPLC experiment a simultaneous increase of Granaticin A chromatographic areas and decrease of Granaticin B areas is observed. The hydrolysis experiment and the almost identical UV spectra indicate that MSK-777 (Granaticin B) and Granatioin A share the same core structure and chromophore. Therefore the structural difference between Granaticin A and MSK-777 arises from a hydrolysable part (sugar moiety) of the latter compound.

| stability of solid form [1] | hygroscopicity (Hygroscopicity of Form A) | pKa [2] | degradation (hydrolysis of the glycosidic bond forming Granaticin A) [3] | SMILES |
| --- | --- | --- | --- | --- |
| less stable and prone to degradation | – | – | – | CC1OC2CC(=O)OC2C2=C1C(=O)c1c(O)c3c(c(O)c1C2=O)C1CC(OC2CCC(O)C(C)O2)C3(O)C(C)O1 (centres unmarked) [Amorphous Compound 1, granaticin B] |
| more stable than amorphous Compound 1 | substantially non-hygroscopic | – | – | CC1OC2CC(=O)OC2C2=C1C(=O)c1c(O)c3c(c(O)c1C2=O)C1CC(OC2CCC(O)C(C)O2)C3(O)C(C)O1 (centres unmarked) [Form A of Compound 1, granaticin B] |
| – | – | ~8.5 | slow degradation | CC1OC2CC(=O)OC2C2=C1C(=O)c1c(O)c3c(c(O)c1C2=O)C1CC(OC2CCC(O)C(C)O2)C3(O)C(C)O1 (centres unmarked) [MSK-777, granaticin B] |
